Assay results: patent US20100022562A1, “Use of Plant Growth Regulators to Reduce Abscisic Acid Related Plant Leaf Yellowing” (priority 2008, published 2010)

What was measured:
Format in all cases: in vivo
[1] = system: Pansy plants; experiment: Pansy yellow leaf number (leaf yellowing)
Protocol: All studies were conducted in the greenhouse at the research farm of Valent BioSciences Corporation (Long Grove, Ill.). Pansy plants were obtained either from local retailers as mature plants, or plugs from wholesale nurseries. Plugs of Pansy plants were transplanted into an 18-cell flat filled with Promix BX (available from Premier Horticulture Inc. Quakertown, Pa.) and grown for about 30 days prior to treatment. During growing periods, plants received daily irrigation and weekly fertilizer (1 g/L all purpose fertilizer 20-20-20, The Scotts Company, Marysville, Ohio).
(§1) Uniform plants were selected for the study. Prior to chemical treatment, plants were saturated with water and then drained for about two hours. A total of 20 mL chemical solution, which is equivalent to about 10% of the cell volume, was applied to each plant with 3 mL solution foliar applied to canopy and 17 mL solution drench applied to root zone. Unless specified, watering of plants was stopped after chemical treatment.
After chemical treatment, plants were arranged in a randomized complete block experimental design. The plants were rated daily for the extent of wilting on a scale from 1 (no wilting) to 4 (complete wilting) to generated a sales index rating. A rating of 2.5 was the point at which a plant was determined to be unmarketable and the previous day was recorded as the shelf life of that plant in days. […] Leaf transpiration rate was measured after treatment using a LI-1600 Steady State Porometer (LI-Cor, Lincoln, Nebr.). The transpiration rate of each treatment was calculated as the percentage of that of control at each day to reduce day-to-day variation caused by changes of environmental condition such as light intensity, humidity, and temperature.

[2] = system: Pansy plants; experiment: Pansy shelf life under drought (daily wilting rating, sales index)
Summary of the method: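 Greenhouse pansies were treated with 20 mL solution each, 3 mL foliar plus 17 mL root drench, then watering was withheld. Wilting was rated daily on a 1–4 scale, and shelf life was the day before the rating reached 2.5. Yellow leaves were counted 3 days after treatment.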

[3] = system: Pansy plants; experiment: Pansy leaf transpiration rate (LI-1600 Steady State Porometer); details: Matrix Premium Rose
Protocol: as §1
After chemical treatment, plants were arranged in a randomized complete block experimental design. The plants were rated daily for the extent of wilting on a scale from 1 (no wilting) to 4 (complete wilting) to generated a sales index rating. A rating of 2.5 was the point at which a plant was determined to be unmarketable and the previous day was recorded as the shelf life of that plant in days. Yellow leaf number was counted at 3 days after chemical treatment. Leaf transpiration rate was measured after treatment using a LI-1600 Steady State Porometer (LI-Cor, Lincoln, Nebr.). The transpiration rate of each treatment was calculated as the percentage of that of control at each day to reduce day-to-day variation caused by changes of environmental condition such as light intensity, humidity, and temperature.

Q: Which Yellow leaf number ([1]; 0.2 mg BA, Matrix Yellow, 3 d after treatment, Table 5) does the source give for c1ccc(CNc2ncnc3nc[nH]c23)cc1 [BA, 6-benzylaminopurine] here?
A: 1.8

Q: And the Yellow leaf number ([1]; 0.2 mg BA, no water, Whispers White, 3 d after treatment, Table 15)?
A: 7.8

Q: And the Yellow leaf number ([1]; 2 mg BA at 0 d, Matrix Premium Rose, 3 d after treatment, Table 11)?
A: 0.8

Q: What about the Yellow leaf number ([1]; 2 mg BA at +1 d, Matrix Premium Rose, 3 d after treatment, Table 11) of the same compound?
A: 0.8

Q: What about the Yellow leaf number ([1]; 2 mg BA at −1 d, Matrix Premium Rose, 3 d after treatment, Table 11) of the same compound?
A: 0.7

Q: And the Yellow leaf number ([1]; 2 mg BA, Delta Premium Pure White, 3 days after treatment, Table 23)?
A: 1.3

Q: What about the Yellow leaf number ([1]; 2 mg BA, Delta Premium Pure White, 7 days after treatment, Table 23) of the same compound?
A: 6.2

Q: What about the Yellow leaf number ([1]; 2 mg BA, Matrix Yellow, 3 d after treatment, Table 5) of the same compound?
A: 1.5

Q: What about the Yellow leaf number ([1]; 2 mg BA, no water, Matrix Premium Rose, 3 d after treatment, Table 13) of the same compound?
A: 0.8

Q: What about the Yellow leaf number ([1]; 2 mg BA, no water, Whispers White, 3 d after treatment, Table 15) of the same compound?
A: 6.3

Q: What about the Yellow leaf number ([1]; 2 mg, Clear Sky Yellow, drought, 3 d after treatment, Table 8) of the same compound?
A: 0.0

Q: And the Yellow leaf number ([1]; 2 mg, Crown Azure Blue, drought, 3 d after treatment, Table 9)?
A: 0.3

Q: And the Yellow leaf number ([1]; 2 mg, Matrix Yellow, drought, 3 d after treatment, Table 7)?
A: 7.8

Q: What about the Yellow leaf number ([1]; 2 mg, Matrix Yellow, drought, 3 d after treatment, Table 10) of the same compound?
A: 7.2

Q: What about the Shelf life ([2]; 0.2 mg BA, Matrix Yellow, Table 5) of the same compound?
A: 3.8 days

Q: And the Shelf life ([2]; 0.2 mg BA, no water, Whispers White, Table 15)?
A: 2.5 days

Q: And the Shelf life ([2]; 2 mg BA at 0 d, Matrix Premium Rose, Table 11)?
A: 3.7 days

Q: What about the Shelf life ([2]; 2 mg BA at +1 d, Matrix Premium Rose, Table 11) of the same compound?
A: 4.0 days

Q: What about the Shelf life ([2]; 2 mg BA at −1 d (1 day prior to ABA treatment day), Matrix Premium Rose, Table 11) of the same compound?
A: 3.8 days

Q: And the Shelf life ([2]; 2 mg BA, Delta Premium Pure White, Table 23)?
A: 4.0 days

Q: What about the Shelf life ([2]; 2 mg BA, Matrix Yellow, Table 5) of the same compound?
A: 3.8 days

Q: What about the Shelf life ([2]; 2 mg BA, no water, Matrix Premium Rose, Table 13) of the same compound?
A: 4.0 days

Q: And the Shelf life ([2]; 2 mg BA, no water, Whispers White, Table 15)?
A: 2.7 days

Q: What about the Shelf life ([2]; 2 mg, Clear Sky Yellow, drought, Table 8) of the same compound?
A: 3.8 days

Q: What about the Shelf life ([2]; 2 mg, Crown Azure Blue, drought, Table 9) of the same compound?
A: 3.3 days

Q: What about the Shelf life ([2]; 2 mg, Matrix Yellow, drought, Table 7) of the same compound?
A: 3.5 days

Q: And the Shelf life ([2]; 2 mg, Matrix Yellow, drought, Table 10)?
A: 2.3 days

Q: And the “Transpiration rate (% of control)” value ([3]; 0.2 mg BA, no water, day 1 after treatment, Table 16)?
A: 101 % of control

Q: What about the “Transpiration rate (% of control)” value ([3]; 0.2 mg BA, no water, day 2 after treatment, Table 16) of the same compound?
A: 29 % of control

Q: And the “Transpiration rate (% of control)” value ([3]; 0.2 mg BA, no water, day 3 after treatment, Table 16)?
A: 7 % of control

Q: What about the “Transpiration rate (% of control)” value ([3]; 0.2 mg BA, watered, day 1 after treatment, Table 16) of the same compound?
A: 102 % of control

Q: And the “Transpiration rate (% of control)” value ([3]; 0.2 mg BA, watered, day 2 after treatment, Table 16)?
A: 98 % of control

Q: What about the “Transpiration rate (% of control)” value ([3]; 0.2 mg BA, watered, day 3 after treatment, Table 16) of the same compound?
A: 100 % of control

Q: And the “Transpiration rate (% of control)” value ([3]; 0.2 mg BA, watered, day 4 after treatment, Table 16)?
A: 101 % of control

Q: And the “Transpiration rate (% of control)” value ([3]; 0.2 mg BA, watered, day 5 after treatment, Table 16)?
A: 100 % of control

Q: What about the “Transpiration rate (% of control)” value ([3]; 0.2 mg BA, watered, day 7 after treatment, Table 16) of the same compound?
A: 99 % of control

Q: And the “Transpiration rate (% of control)” value ([3]; 0.2 mg BA, watered, day 10 after treatment, Table 16)?
A: 100 % of control

Q: What about the “Transpiration rate (% of control)” value ([3]; 2 mg BA at 0 d, day 1 after ABA treatment, Table 12) of the same compound?
A: 105 % of control

Q: What about the “Transpiration rate (% of control)” value ([3]; 2 mg BA at 0 d, day 2 after ABA treatment, Table 12) of the same compound?
A: 97 % of control

Q: And the “Transpiration rate (% of control)” value ([3]; 2 mg BA at 0 d, day 3 after ABA treatment, Table 12)?
A: 98 % of control

Q: And the “Transpiration rate (% of control)” value ([3]; 2 mg BA at +1 d, day 1 after ABA treatment, Table 12)?
A: 96 % of control

Q: And the “Transpiration rate (% of control)” value ([3]; 2 mg BA at +1 d, day 2 after ABA treatment, Table 12)?
A: 101 % of control

Q: And the “Transpiration rate (% of control)” value ([3]; 2 mg BA at +1 d, day 3 after ABA treatment, Table 12)?
A: 107 % of control

Q: What about the “Transpiration rate (% of control)” value ([3]; 2 mg BA at −1 d, day 1 after ABA treatment, Table 12) of the same compound?
A: 115 % of control

Q: What about the “Transpiration rate (% of control)” value ([3]; 2 mg BA at −1 d, day 2 after ABA treatment, Table 12) of the same compound?
A: 104 % of control

Q: And the “Transpiration rate (% of control)” value ([3]; 2 mg BA at −1 d, day 3 after ABA treatment, Table 12)?
A: 109 % of control

Q: What about the “Transpiration rate (% of control)” value ([3]; 2 mg BA, no water, day 1 after treatment, Table 14) of the same compound?
A: 108 % of control

Q: What about the “Transpiration rate (% of control)” value ([3]; 2 mg BA, no water, day 1 after treatment, Table 16) of the same compound?
A: 101 % of control

Q: What about the “Transpiration rate (% of control)” value ([3]; 2 mg BA, no water, day 2 after treatment, Table 14) of the same compound?
A: 71 % of control

Q: And the “Transpiration rate (% of control)” value ([3]; 2 mg BA, no water, day 2 after treatment, Table 16)?
A: 34 % of control

Q: And the “Transpiration rate (% of control)” value ([3]; 2 mg BA, no water, day 3 after treatment, Table 14)?
A: 54 % of control

Q: What about the “Transpiration rate (% of control)” value ([3]; 2 mg BA, no water, day 3 after treatment, Table 16) of the same compound?
A: 14 % of control

Q: What about the “Transpiration rate (% of control)” value ([3]; 2 mg BA, no water, day 4 after treatment, Table 14) of the same compound?
A: 35 % of control

Q: And the “Transpiration rate (% of control)” value ([3]; 2 mg BA, watered, day 1 after treatment, Table 14)?
A: 109 % of control

Q: And the “Transpiration rate (% of control)” value ([3]; 2 mg BA, watered, day 1 after treatment, Table 16)?
A: 99 % of control

Q: And the “Transpiration rate (% of control)” value ([3]; 2 mg BA, watered, day 2 after treatment, Table 14)?
A: 102 % of control

Q: What about the “Transpiration rate (% of control)” value ([3]; 2 mg BA, watered, day 2 after treatment, Table 16) of the same compound?
A: 97 % of control

Q: And the “Transpiration rate (% of control)” value ([3]; 2 mg BA, watered, day 3 after treatment, Table 14)?
A: 101 % of control

Q: What about the “Transpiration rate (% of control)” value ([3]; 2 mg BA, watered, day 3 after treatment, Table 16) of the same compound?
A: 98 % of control

Q: And the “Transpiration rate (% of control)” value ([3]; 2 mg BA, watered, day 4 after treatment, Table 14)?
A: 101 % of control

Q: And the “Transpiration rate (% of control)” value ([3]; 2 mg BA, watered, day 4 after treatment, Table 16)?
A: 97 % of control

Q: What about the “Transpiration rate (% of control)” value ([3]; 2 mg BA, watered, day 5 after treatment, Table 14) of the same compound?
A: 99 % of control

Q: And the “Transpiration rate (% of control)” value ([3]; 2 mg BA, watered, day 5 after treatment, Table 16)?
A: 101 % of control

Q: What about the “Transpiration rate (% of control)” value ([3]; 2 mg BA, watered, day 7 after treatment, Table 14) of the same compound?
A: 98 % of control

Q: And the “Transpiration rate (% of control)” value ([3]; 2 mg BA, watered, day 7 after treatment, Table 16)?
A: 97 % of control

Q: What about the “Transpiration rate (% of control)” value ([3]; 2 mg BA, watered, day 10 after treatment, Table 14) of the same compound?
A: 101 % of control

Q: What about the “Transpiration rate (% of control)” value ([3]; 2 mg BA, watered, day 10 after treatment, Table 16) of the same compound?
A: 102 % of control

Q: What about the “Transpiration rate (% of control)” value ([3]; 2 mg BA, watered, day 15 after treatment, Table 14) of the same compound?
A: 98 % of control
